Results on 25 compounds are retold here after ChEMBL document CHEMBL1131854, “Design, synthesis and antimuscarinic activity of some imidazolium derivatives” (Bioorg Med Chem Lett, 1999).

Experiment [1] addresses Muscarinic acetylcholine receptor M3 (Cavia porcellus) (UniProt Q8VH26). Put plainly: Antimuscarinic activity against muscarinic acetylcholine M3-receptor in guinea pig ileum. Format: tissue-based.
The target in experiment [2] is Muscarinic acetylcholine receptors; M2 & M3 (Homo sapiens) (UniProt P20309+P08172). Put plainly: Selectivity ratio between Kb values of M2-receptor (atria) and M3-receptor (ileum). Format: tissue-based. As to conditions: Cavia porcellus.

Each structure is given as a SMILES string.

Sequence of Muscarinic acetylcholine receptor M3 (Cavia porcellus) (Q8VH26 1-587): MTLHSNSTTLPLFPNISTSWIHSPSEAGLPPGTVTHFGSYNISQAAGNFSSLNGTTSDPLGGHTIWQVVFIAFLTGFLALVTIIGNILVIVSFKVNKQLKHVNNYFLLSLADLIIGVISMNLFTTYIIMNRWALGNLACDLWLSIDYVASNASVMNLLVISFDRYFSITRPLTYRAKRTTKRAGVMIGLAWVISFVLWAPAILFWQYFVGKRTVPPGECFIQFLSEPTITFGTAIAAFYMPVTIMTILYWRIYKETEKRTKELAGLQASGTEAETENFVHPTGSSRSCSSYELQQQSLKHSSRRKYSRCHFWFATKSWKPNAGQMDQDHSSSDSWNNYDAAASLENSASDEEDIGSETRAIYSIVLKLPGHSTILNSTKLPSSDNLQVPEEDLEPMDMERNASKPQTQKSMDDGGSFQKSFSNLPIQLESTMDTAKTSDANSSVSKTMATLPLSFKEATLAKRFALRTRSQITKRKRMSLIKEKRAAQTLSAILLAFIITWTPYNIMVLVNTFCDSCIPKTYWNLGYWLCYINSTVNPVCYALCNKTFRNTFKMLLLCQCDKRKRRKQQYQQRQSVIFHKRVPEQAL

In turn, `Cc1n(CCC(C(N)=O)(c2ccccc2)c2ccccc2)cc[n+]1Cc1ccccc1` yielded a Kb in experiment [1] of 4.96 nM. For the same compound, the Ratio in experiment [2] was 13.5.

With `Cc1nccn1CCC(C(N)=O)(c1ccccc1)c1ccccc1`, the Ratio in experiment [2] worked out at 13.

On to `CCCc1nccn1CCC(C(N)=O)(c1ccccc1)c1ccccc1`, for which the Ratio in experiment [2] was found to be 1.44.

Take `Cc1n(CCC(C(N)=O)(c2ccccc2)c2ccccc2)cc[n+]1C`: in experiment [1], the Kb came out at 3.78 nM. For the same compound, in experiment [2], the Ratio stood at 1.68.

For `CCc1nccn1CCC(C(N)=O)(c1ccccc1)c1ccccc1`, the Ratio in experiment [2] worked out at 3.3.

In experiment [1], `Cc1n(CCC(C(N)=O)(c2ccccc2)c2ccccc2)cc[n+]1Cc1cccc(Cl)c1` gave a Kb of 5.62 nM. Moreover, in experiment [2], the Ratio came to 4.36.

Consider `Cc1n(CCCC(C(N)=O)(c2ccccc2)c2ccccc2)cc[n+]1Cc1ccccc1`, for which, in experiment [1], the Kb was 0.639 nM. For the same compound, the Ratio in experiment [2] stood at 9.94.

As for `Cc1nccn1CCCC(C(N)=O)(c1ccccc1)c1ccccc1`, in experiment [2], the Ratio worked out at 17.6.

In experiment [1], `Cc1cccc(C[n+]2ccn(CCC(C(N)=O)(c3ccccc3)c3ccccc3)c2C)c1` displayed a Kb of 2.52 nM. Besides, in experiment [2], the Ratio turned out to be 4.6.

`CCc1n(CCC(C(N)=O)(c2ccccc2)c2ccccc2)cc[n+]1C` showed a Kb in experiment [1] of 1.14 nM. The Ratio in experiment [2] is 4.11.

For the compound `Cc1n(CCC(C(N)=O)(c2ccccc2)c2ccccc2)cc[n+]1Cc1ccc(Cl)cc1`, in experiment [1], the Kb was found to be 0.647 nM. Besides, the Ratio in experiment [2] stood at 9.32.

Compound `CCC[n+]1ccn(CCC(C(N)=O)(c2ccccc2)c2ccccc2)c1C` returned a Kb in experiment [1] of 4.07 nM. The Ratio in experiment [2] was 3.02.

The compound `Cc1n(CCC(C(N)=O)(c2ccccc2)c2ccccc2)cc[n+]1Cc1ccc(-c2ccccc2)cc1` had a Kb in experiment [1] of 1.24 nM. Besides, in experiment [2], the Ratio was determined as 24.8.

In the case of `CCCC[n+]1ccn(CCC(C(N)=O)(c2ccccc2)c2ccccc2)c1C`, the Kb in experiment [1] is 3.12 nM. The Ratio in experiment [2] came to 5.83.

Turning to `Cc1n(CCCCC(C(N)=O)(c2ccccc2)c2ccccc2)cc[n+]1Cc1ccccc1`, the Kb in experiment [1] was 0.756 nM. For the same compound, in experiment [2], the Ratio came to 26.2.

In experiment [1], `Cc1n(CCC(C(N)=O)(c2ccccc2)c2ccccc2)cc[n+]1Cc1ccc([N+](=O)[O-])cc1` gave a Kb of 0.858 nM. Further, the Ratio in experiment [2] turned out to be 5.28.

On to `Cc1nccn1CCCCC(C(N)=O)(c1ccccc1)c1ccccc1`, for which, in experiment [2], the Ratio came to 3.39.

Consider `CCCc1n(CCC(C(N)=O)(c2ccccc2)c2ccccc2)cc[n+]1C`, for which the Kb in experiment [1] turned out to be 12.5 nM. Further, the Ratio in experiment [2] came to 1.74.

For `CC(C)(C)c1nccn1CCC(C(N)=O)(c1ccccc1)c1ccccc1`, the Ratio in experiment [2] came to 2.45.

Take `Cc1n(CCC(C(N)=O)(c2ccccc2)c2ccccc2)cc[n+]1Cc1ccccc1Cl`: the Kb in experiment [1] came to 11.8 nM. Further, the Ratio in experiment [2] came to 5.67.

`Cc1ccc(C[n+]2ccn(CCC(C(N)=O)(c3ccccc3)c3ccccc3)c2C)cc1` had a Kb in experiment [1] of 1.02 nM. For the same compound, in experiment [2], the Ratio stood at 7.15.

Consider `NC(=O)C(CCn1ccnc1)(c1ccccc1)c1ccccc1`, for which the Ratio in experiment [2] was found to be 13.5.

With `CC[n+]1ccn(CCC(C(N)=O)(c2ccccc2)c2ccccc2)c1C`, the Kb in experiment [1] turned out to be 7.11 nM. The Ratio in experiment [2] was 1.3.

In turn, `Cc1ccccc1C[n+]1ccn(CCC(C(N)=O)(c2ccccc2)c2ccccc2)c1C` gave a Kb in experiment [1] of 21.1 nM. Besides, the Ratio in experiment [2] is 2.24.

In the case of `Cc1n(CCC(C(N)=O)(c2ccccc2)c2ccccc2)cc[n+]1Cc1ccc(Br)cc1`, the Kb in experiment [1] is 0.117 nM. In addition, the Ratio in experiment [2] was found to be 22.1.
